The values that follow come from paper PMC8144059 (Drug metabolism and pharmacokinetics, 2021).

This series addresses CYP3A4.1 (WT) (Homo sapiens, UniProt P08684). The following applies: Figure 2, CYP3A4.1, TST 10–500 μM, n=5.

Sequence of CYP3A4.1 (WT) (P08684 2-503): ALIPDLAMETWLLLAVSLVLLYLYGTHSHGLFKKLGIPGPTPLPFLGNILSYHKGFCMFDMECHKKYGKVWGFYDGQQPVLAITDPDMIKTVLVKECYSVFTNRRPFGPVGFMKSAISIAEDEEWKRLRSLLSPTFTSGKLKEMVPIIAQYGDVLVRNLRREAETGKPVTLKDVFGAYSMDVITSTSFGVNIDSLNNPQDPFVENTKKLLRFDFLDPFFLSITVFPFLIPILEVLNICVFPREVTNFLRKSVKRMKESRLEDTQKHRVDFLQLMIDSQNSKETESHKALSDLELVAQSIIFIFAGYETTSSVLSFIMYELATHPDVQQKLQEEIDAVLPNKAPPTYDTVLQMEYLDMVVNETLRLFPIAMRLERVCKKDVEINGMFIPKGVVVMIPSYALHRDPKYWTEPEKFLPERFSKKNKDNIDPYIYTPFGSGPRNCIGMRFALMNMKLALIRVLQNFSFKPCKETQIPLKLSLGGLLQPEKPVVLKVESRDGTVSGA

With `OC(Cn1cncn1)(Cn1cncn1)c1ccc(F)cc1F` [FCZ, fluconazole], the “Inhibition of CYP3A4 activity (TST metabolism)” value is “inhibited CYP3A4 activity in a concentration-dependent manner”.
